US6096930A, “Herbicidal cyclohexane-1,3-dione derivatives and their preparation process” (Korea Research Institute of Chemical Technology, priority 1994, dated 2000)
Where two headings read alike, the source gives them in different places.

Columns and labels:
Assay type in all cases: in vivo
SOLNI [1] = test: Herbicidal activity, upland test, pre-emergence
Description: (§1) The sterilized sandy loam soil is filled in test pot having a surface area of 348 cm^2 for upland test conditions or 115 cm^2 for paddy test species were planted in furrows.
(§2) For the pre-emergent tests, were sprayed on the soil one day after planting test compound in a mixture of acetone and 7 ml of the water containing up to 0.1% Tween 20.
(§3) The concentration of the test compound in solution was varied to give a range of application rates, generally 4.0 kg/ha and submultiples thereof. The pots were placed in a greenhouse and watered regularly at the soil surface for 21 days and herbicidal effects were visually rated by a percent control.
(§4) The herbicidal activity data were taken visually by percent control, wherein 0 signifies no herbicidal effect and 100 signifies complete kill.

SORBI [2] = test: Herbicidal activity, upland test, pre-emergence
Description: as §1, §2, §3, §4

BROJA [3] = test: Herbicidal activity, upland test, pre-emergence
Description: as §1, §2, §3, §4

PANDI [4] = test: Herbicidal activity, upland test, pre-emergence
Description: as §1, §2, §3, §4

ZEAMX [5] = test: Herbicidal activity, upland test, pre-emergence
Description: as §1, §2, §3, §4

SAGPY = test: Herbicidal activity for paddy test
Method in brief: (§5)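 Visual percent-control rating: 0 = no herbicidal effect, 100 = complete kill. Plants grown in furrows, sterilized sandy loam, 115 cm^2 pots (paddy conditions).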

SCPJU = test: Herbicidal activity for paddy test
Method in brief: as §5

ECHOR [6] = test: Herbicidal activity for paddy test
Method in brief: as §5

ORYSA [7] = test: Herbicidal activity for paddy test; conditions: for plant injury at 2 g/ha: 0.002 kg/ha; for plant injury at 8 g/ha: 0.008 kg/ha; for plant injury at 31 g/ha: 0.031 kg/ha; for plant injury at 125 g/ha: 0.125 kg/ha; for plant injury at 500 g/ha: 0.500 kg/ha
Method in brief: as §5

MOOVA = test: Herbicidal activity for paddy test
Method in brief: as §5

GOSHI = test: Herbicidal activity, upland test, post-emergence
Excerpt: as §1
(§6) The pots for the post-emergent tests were placed in a greenhouse and watered for 9~14 days, then the foliage of test plants was sprayed with a solution of the test compound in a mixture of acetone and water containing a small amount of Tween 20.
(§7) After spraying the plants were kept for one day, then watered regularly for 14 to 21 days, and herbicidal activity data were recorded.
as §4

GLXMX = test: Herbicidal activity, upland test, post-emergence
Excerpt: as §1, §6, §7, §4

SOLNI [8] = test: Herbicidal activity, upland test, post-emergence
Excerpt: as §1, §6, §7, §4

SORBI [9] = test: Herbicidal activity, upland test, post-emergence
Excerpt: as §1, §6, §7, §4

BROJA [10] = test: Herbicidal activity, upland test, post-emergence
Excerpt: as §1, §6, §7, §4

AESIN = test: Herbicidal activity, upland test, post-emergence
Excerpt: as §1, §6, §7, §4

PANDI [11] = test: Herbicidal activity, upland test, post-emergence
Excerpt: as §1, §6, §7, §4

TRZAW = test: Herbicidal activity, upland test, post-emergence
Excerpt: as §1, §6, §7, §4

ECHOR [12] = test: Herbicidal activity, upland test, post-emergence
Excerpt: as §1, §6, §7, §4

DIGSA = test: Herbicidal activity, upland test, post-emergence
Excerpt: as §1, §6, §7, §4

ABUTH = test: Herbicidal activity, upland test, post-emergence
Excerpt: as §1, §6, §7, §4

ORYSA [13] = test: Herbicidal activity, upland test, post-emergence
Excerpt: as §1, §6, §7, §4

ZEAMX [14] = test: Herbicidal activity, upland test, post-emergence
Excerpt: as §1, §6, §7, §4

[15] = 3 Leaf, read-out: Herbicidal activity, ORYSA (3 Leaf)
[16] = seed, read-out: Herbicidal activity, ORYSA (seed)

CCC(=NOC)C1=C(O)CC(c2c(C)c(C)c3c(c2C)CC(C)(C)C3)CC1=O (stereo not drawn) [Compound 1]
Herbicidal activity, SOLNI (SOLNI [1]; 0.016 kg/ha): 0 % inhibition | Herbicidal activity, SOLNI (SOLNI [1]; 0.063 kg/ha): 0 % inhibition | Herbicidal activity, SOLNI (SOLNI [1]; 1.000 kg/ha): 0 % inhibition | Herbicidal activity, SOLNI (SOLNI [1]; 1.250 kg/ha): 0 % inhibition | Herbicidal activity, SORBI (SORBI [2]; 0.016 kg/ha): 0 % inhibition | Herbicidal activity, SORBI (SORBI [2]; 0.063 kg/ha): 0 % inhibition | Herbicidal activity, SORBI (SORBI [2]; 1.000 kg/ha): 60 % inhibition | Herbicidal activity, SORBI (SORBI [2]; 1.250 kg/ha): 20 % inhibition | Herbicidal activity, BROJA (BROJA [3]; 0.016 kg/ha): 0 % inhibition | Herbicidal activity, BROJA (BROJA [3]; 0.063 kg/ha): 0 % inhibition | Herbicidal activity, BROJA (BROJA [3]; 1.000 kg/ha): 100 % inhibition | Herbicidal activity, BROJA (BROJA [3]; 1.250 kg/ha): 40 % inhibition | Herbicidal activity, PANDI (PANDI [4]; 0.016 kg/ha): 0 % inhibition | Herbicidal activity, PANDI (PANDI [4]; 0.063 kg/ha): 100 % inhibition | Herbicidal activity, PANDI (PANDI [4]; 1.000 kg/ha): 100 % inhibition | Herbicidal activity, PANDI (PANDI [4]; 1.250 kg/ha): 100 % inhibition | Herbicidal activity, ZEAMX (ZEAMX [5]; 0.016 kg/ha): 0 % inhibition | Herbicidal activity, ZEAMX (ZEAMX [5]; 0.063 kg/ha): 0 % inhibition | Herbicidal activity, ZEAMX (ZEAMX [5]; 1.000 kg/ha): 60 % inhibition | Herbicidal activity, ZEAMX (ZEAMX [5]; 1.250 kg/ha): 10 % inhibition | pest or weed control at 2 g/ha (SAGPY; 0.002 kg/ha): 0% | pest or weed control at 8 g/ha (SAGPY; 0.008 kg/ha): 0% | pest or weed control at 31 g/ha (SAGPY; 0.031 kg/ha): 0% | pest or weed control at 125 g/ha (SAGPY; 0.125 kg/ha): 0% | pest or weed control at 500 g/ha (SAGPY; 0.500 kg/ha): 0% | pest or weed control at 2 g/ha (SCPJU; 0.002 kg/ha): 0% | pest or weed control at 8 g/ha (SCPJU; 0.008 kg/ha): 0% | pest or weed control at 31 g/ha (SCPJU; 0.031 kg/ha): 0% | pest or weed control at 125 g/ha (SCPJU; 0.125 kg/ha): 0% | pest or weed control at 500 g/ha (SCPJU; 0.500 kg/ha): 0% | pest or weed control at 2 g/ha (ECHOR [6]; 0.002 kg/ha): 95% | pest or weed control at 8 g/ha (ECHOR [6]; 0.008 kg/ha): 95% | pest or weed control at 31 g/ha (ECHOR [6]; 0.031 kg/ha): 100% | pest or weed control at 125 g/ha (ECHOR [6]; 0.125 kg/ha): 100% | pest or weed control at 500 g/ha (ECHOR [6]; 0.500 kg/ha): 100% | plant injury at 2 g/ha (ORYSA [7]; [15]): 0% | plant injury at 8 g/ha (ORYSA [7]; [15]): 0% | plant injury at 31 g/ha (ORYSA [7]; [15]): 0% | plant injury at 125 g/ha (ORYSA [7]; [15]): 90% | plant injury at 500 g/ha (ORYSA [7]; [15]): 100% | plant injury at 2 g/ha (ORYSA [7]; [16]): 0% | plant injury at 8 g/ha (ORYSA [7]; [16]): 70% | plant injury at 31 g/ha (ORYSA [7]; [16]): 100% | plant injury at 125 g/ha (ORYSA [7]; [16]): 100% | plant injury at 500 g/ha (ORYSA [7]; [16]): 100% | pest or weed control at 2 g/ha (MOOVA; 0.002 kg/ha): 0% | pest or weed control at 8 g/ha (MOOVA; 0.008 kg/ha): 0% | pest or weed control at 31 g/ha (MOOVA; 0.031 kg/ha): 0% | pest or weed control at 125 g/ha (MOOVA; 0.125 kg/ha): 0% | pest or weed control at 500 g/ha (MOOVA; 0.500 kg/ha): 0% | Herbicidal activity, GOSHI (GOSHI; 0.016 kg/ha): 0 % inhibition | Herbicidal activity, GOSHI (GOSHI; 0.063 kg/ha): 30 % inhibition | Herbicidal activity, GOSHI (GOSHI; 1.000 kg/ha): 50 % inhibition | Herbicidal activity, GOSHI (GOSHI; 1.250 kg/ha): 40 % inhibition | Herbicidal activity, GLXMX (GLXMX; 0.016 kg/ha): 0 % inhibition | Herbicidal activity, GLXMX (GLXMX; 0.063 kg/ha): 0 % inhibition | Herbicidal activity, GLXMX (GLXMX; 1.000 kg/ha): 60 % inhibition | Herbicidal activity, GLXMX (GLXMX; 1.250 kg/ha): 20 % inhibition | Herbicidal activity, SOLNI (SOLNI [8]; 0.016 kg/ha): 0 % inhibition | Herbicidal activity, SOLNI (SOLNI [8]; 0.063 kg/ha): 0 % inhibition | Herbicidal activity, SOLNI (SOLNI [8]; 1.000 kg/ha): 0 % inhibition | Herbicidal activity, SOLNI (SOLNI [8]; 1.250 kg/ha): 0 % inhibition | Herbicidal activity, SORBI (SORBI [9]; 0.016 kg/ha): 0 % inhibition | Herbicidal activity, SORBI (SORBI [9]; 0.063 kg/ha): 20 % inhibition | Herbicidal activity, SORBI (SORBI [9]; 1.000 kg/ha): 100 % inhibition | Herbicidal activity, SORBI (SORBI [9]; 1.250 kg/ha): 60 % inhibition | Herbicidal activity, BROJA (BROJA [10]; 0.016 kg/ha): 0 % inhibition | Herbicidal activity, BROJA (BROJA [10]; 0.063 kg/ha): 40 % inhibition | Herbicidal activity, BROJA (BROJA [10]; 1.000 kg/ha): 100 % inhibition | Herbicidal activity, BROJA (BROJA [10]; 1.250 kg/ha): 70 % inhibition | Herbicidal activity, AESIN (AESIN; 0.016 kg/ha): 0 % inhibition | Herbicidal activity, AESIN (AESIN; 0.063 kg/ha): 0 % inhibition | Herbicidal activity, AESIN (AESIN; 1.000 kg/ha): 0 % inhibition | Herbicidal activity, AESIN (AESIN; 1.250 kg/ha): 0 % inhibition | Herbicidal activity, PANDI (PANDI [11]; 0.016 kg/ha): 40 % inhibition | Herbicidal activity, PANDI (PANDI [11]; 0.063 kg/ha): 100 % inhibition | Herbicidal activity, PANDI (PANDI [11]; 1.000 kg/ha): 100 % inhibition | Herbicidal activity, PANDI (PANDI [11]; 1.250 kg/ha): 100 % inhibition | Herbicidal activity, TRZAW (TRZAW; 0.016 kg/ha): 30 % inhibition | Herbicidal activity, TRZAW (TRZAW; 0.063 kg/ha): 40 % inhibition | Herbicidal activity, TRZAW (TRZAW; 1.000 kg/ha): 100 % inhibition | Herbicidal activity, TRZAW (TRZAW; 1.250 kg/ha): 60 % inhibition | Herbicidal activity, ECHOR (ECHOR [12]; 0.016 kg/ha): 60 % inhibition | Herbicidal activity, ECHOR (ECHOR [12]; 0.063 kg/ha): 100 % inhibition | Herbicidal activity, ECHOR (ECHOR [12]; 1.000 kg/ha): 100 % inhibition | Herbicidal activity, ECHOR (ECHOR [12]; 1.250 kg/ha): 100 % inhibition | Herbicidal activity, DIGSA (DIGSA; 0.016 kg/ha): 70 % inhibition | Herbicidal activity, DIGSA (DIGSA; 0.063 kg/ha): 100 % inhibition | Herbicidal activity, DIGSA (DIGSA; 1.000 kg/ha): 100 % inhibition | Herbicidal activity, DIGSA (DIGSA; 1.250 kg/ha): 100 % inhibition | Herbicidal activity, ABUTH (ABUTH; 0.016 kg/ha): 0 % inhibition | Herbicidal activity, ABUTH (ABUTH; 0.063 kg/ha): 0 % inhibition | Herbicidal activity, ABUTH (ABUTH; 1.000 kg/ha): 0 % inhibition | Herbicidal activity, ABUTH (ABUTH; 1.250 kg/ha): 0 % inhibition | Herbicidal activity, ORYSA (ORYSA [13]; 0.016 kg/ha): 0 % inhibition | Herbicidal activity, ORYSA (ORYSA [13]; 0.063 kg/ha): 50 % inhibition | Herbicidal activity, ORYSA (ORYSA [13]; 1.000 kg/ha): 100 % inhibition | Herbicidal activity, ORYSA (ORYSA [13]; 1.250 kg/ha): 100 % inhibition | Herbicidal activity, ZEAMX (ZEAMX [14]; 0.016 kg/ha): 0 % inhibition | Herbicidal activity, ZEAMX (ZEAMX [14]; 0.063 kg/ha): 30 % inhibition | Herbicidal activity, ZEAMX (ZEAMX [14]; 1.000 kg/ha): 100 % inhibition | Herbicidal activity, ZEAMX (ZEAMX [14]; 1.250 kg/ha): 100 % inhibition
